Tests used:
Type in all cases: cell-based
[1] = system: MCF-7 (breast carcinoma); assay: MTS cell viability assay, MCF-7
Procedure: (§1) Cells were plated, the evening before treatment, for each treatment on 96-well plates (1×10^4 cells/well) in 100 μL volume per well. Analog solutions were prepared by diluting each test compound in DSMO (10 mM) with the appropriate cell growth media for each individual cell line, or in “Universal Media” if several cell lines were to be assayed in parallel, immediately prior to cell treatment. Universal Media consisted of 5 mL sodium pyruvate (100× liquid stock, MediaTech), 5 mL glucose (100×, 45% liquid stock, MediaTech), 5 mL Penicillin/Streptomycin (100× liquid stock, MediaTech), 10 mL sodium bicarbonate (50× liquid stock, MediaTech), 25 mL Fetal Calf Serum, 1.25 mL insulin (4 mg/mL, Gibco) and […] RPMI media with 2 mM L-glutamine for a total volume of 500 mL.
(§2) Cells were treated by aspirating plating media from each well and adding 80 μL of betulinic acid (control) or each analog solution in serial dilutions to the adherent cells. All treatments were performed in triplicate. Growth media (80 μL) was added to 3 blank wells (no cells) to measure background from the growth media. Growth media alone (no DMSO or test compound) was added to 3 wells containing cells to measure the baseline MTS activity. Vehicle (DMSO) control in serial dilutions, added to cells, was also included to monitor basal toxicity from DMSO. Cells were incubated at 37° C. for 72 h, or 120 h for the OVCAR cell lines. MTS reagent (per 96-well plate) were prepared by combining 2 mL of MTS working solution (Cell Titer AQueous Non-Radioactive Cell Proliferation Assay, Promega, cat#G1112), 100 μL of 0.92 mg/mL phenazine methosulfate/Dulbecco's PBS and 2.1 mL growth media. MTS reagent (40 μL) were added to each well and incubated at 37° C. for 1.5 to 4 h. Plates were gently shaken by hand until solution in each well appeared homogenous. Absorbances at 490 nm were measured on a Wallac Victor II plate reader at multiple time points following the addition of MTS reagent for each plate. Triplicate absorbance (490 nm) measurements were averaged following background (no cell) subtraction for each drug concentration. Percent Cell Viability was calculated for each drug concentration using the following equation:
(§3) {[Absorbance(analog treated)]/[Absorbance(DMSO treated)]}×100%
(§4) Cytotoxicity dose response for the triterpenoid derivatives synthesized in SK-MEL-2 (melanoma), A-375 (melanoma), Daoy (glioblastoma), LN-229 (glioblastoma), OVCAR-3 (ovarian carcinoma), HT-29 (colon carcinoma), MCF-7 (breast carcinoma) cell lines using the standard MTS assay is summarized in Table 1. In Table 1, compounds 22a-d and compounds 23a-c refer to structures 22 and 23 in Scheme 5, respectively. Compounds 24aa-an and 24ba-bq refer to structure 24 in Scheme 6. Compounds 26a-e refer to structure 26 in Scheme 6. Compounds 36a-c refer to structure 36 in Scheme 10.

[2] = system: Daoy; assay: MTS cell viability assay, Daoy; details: cells incubated 72 h
Procedure: as §1, §2, §3, §4

[3] = system: HT-29 (colon carcinoma); assay: MTS cell viability assay, HT-29
Procedure: as §1, §2, §3, §4

[4] = system: LN-229 (glioblastoma); assay: MTS cell viability assay, LN-229
Procedure: as §1, §2, §3, §4

[5] = system: SK-MEL-2 (melanoma); assay: MTS cell viability assay, SK-MEL-2
Procedure: as §1, §2, §3, §4

[6] = system: A-375 (melanoma); assay: MTS cell viability assay, A-375
Procedure: as §1, §2, §3, §4

[7] = Homo sapiens, MCF7, cells incubated 72 h
[8] = Homo sapiens, HT-29, cells incubated 72 h
[9] = Homo sapiens, LN-229, cells incubated 72 h
[10] = Homo sapiens, SK-MEL-2, cells incubated 72 h
[11] = Homo sapiens, A-375, cells incubated 72 h

**Q.** What does the source list for `C=C(CNCCc1ccc(O)cc1)[C@@H]1CC[C@]2(COC3CCCCO3)CC[C@]3(C)[C@H](CC[C@@H]4[C@@]5(C)CCC(=O)C(C)(C)[C@@H]5CC[C@]43C)[C@@H]12` (some centres unmarked) [Compound 22c]?
**A.** IC50 [1, 7]: 6 µM; IC50 ([2]; Homo sapiens, Daoy): 13 µM; IC50 [3, 8]: 4 µM; IC50 [4, 9]: 8 µM; IC50 [5, 10]: 7 µM; IC50 [6, 11]: 6 µM

**Q.** Which results are given for `C=C(CNCCO)[C@@H]1CC[C@]2(COC3CCCCO3)CC[C@]3(C)[C@H](CC[C@@H]4[C@@]5(C)CCC(O)C(C)(C)[C@@H]5CC[C@]43C)[C@@H]12` (some centres unmarked) [Compound 23a]?
**A.** IC50 ([2]; Homo sapiens, Daoy): 54 µM; IC50 [5, 10]: 16 µM

**Q.** How did the IC50 ([2]; Homo sapiens, Daoy) turn out when `C=C(CNCCO)[C@@H]1CC[C@]2(CO)CC[C@]3(C)[C@H](CC[C@@H]4[C@@]5(C)CCC(O)C(C)(C)[C@@H]5CC[C@]43C)[C@@H]12` (some centres unmarked) [Compound 23b] was run?
**A.** 35 µM

**Q.** What about the IC50 [5, 10] of the same molecule?
**A.** 15 µM

**Q.** Which IC50 [2] does the source give for `C=C(CO)[C@@H]1CC[C@]2(COC3CCCCO3)CC[C@]3(C)[C@H](CC[C@@H]4[C@@]5(C)CCC(NC6CCC(O)CC6)C(C)(C)[C@@H]5CC[C@]43C)[C@@H]12` (some centres unmarked) [Compound 24ak] here?
**A.** 38 µM

**Q.** What about the IC50 ([5]; cells incubated 72 h) of the same molecule?
**A.** 38 µM

**Q.** With `C=C(CNCCO)[C@@H]1CC[C@]2(COC3CCCCO3)CC[C@]3(C)[C@H](CC[C@@H]4[C@@]5(C)CCC(N)C(C)(C)[C@@H]5CC[C@]43C)[C@@H]12` (some centres unmarked) [Compound 24ba] as the molecule, how does the IC50 [1, 7] read?
**A.** 3 µM

**Q.** And the IC50 ([2]; Homo sapiens, Daoy)?
**A.** 5 µM

**Q.** And the IC50 [3, 8]?
**A.** 2 µM

**Q.** What about the IC50 [4, 9] of the same molecule?
**A.** 15 µM

**Q.** What about the IC50 [5, 10] of the same molecule?
**A.** 5 µM

**Q.** And the IC50 [6, 11]?
**A.** 3 µM

**Q.** `C=C(CNCCO)[C@@H]1CC[C@]2(CO)CC[C@]3(C)[C@H](CC[C@@H]4[C@@]5(C)CCC(N)C(C)(C)[C@@H]5CC[C@]43C)[C@@H]12` (some centres unmarked) [Compound 24bb] was tested. Which IC50 [1, 7] did it give?
**A.** 2 µM

**Q.** What about the IC50 ([2]; Homo sapiens, Daoy) of the same molecule?
**A.** 5 µM

**Q.** And the IC50 [3, 8]?
**A.** < 2 µM

**Q.** And the IC50 [4, 9]?
**A.** 12 µM

**Q.** What about the IC50 [5, 10] of the same molecule?
**A.** 6 µM

**Q.** What about the IC50 [6, 11] of the same molecule?
**A.** 5 µM

**Q.** With `C=C(CNCCO)[C@@H]1CC[C@]2(CO)CC[C@]3(C)[C@H](CC[C@@H]4[C@@]5(C)CCC(NCCOC)C(C)(C)[C@@H]5CC[C@]43C)[C@@H]12` (some centres unmarked) [Compound 24bc] as the molecule, how does the IC50 ([1]; cells incubated 72 h) read?
**A.** 11 µM

**Q.** What about the IC50 [2] of the same molecule?
**A.** 5 µM

**Q.** And the IC50 ([3]; cells incubated 72 h)?
**A.** 2 µM

**Q.** What about the IC50 ([4]; cells incubated 72 h) of the same molecule?
**A.** 28 µM

**Q.** And the IC50 ([5]; cells incubated 72 h)?
**A.** 8 µM

**Q.** What about the IC50 ([6]; cells incubated 72 h) of the same molecule?
**A.** 4 µM

**Q.** For `C=C(CNCCO)[C@@H]1CC[C@]2(COC3CCCCO3)CC[C@]3(C)[C@H](CC[C@@H]4[C@@]5(C)CCC(NCC(=O)OC)C(C)(C)[C@@H]5CC[C@]43C)[C@@H]12` (some centres unmarked) [Compound 24bd], which IC50 [2] is on record?
**A.** 16 µM

**Q.** What about the IC50 ([5]; cells incubated 72 h) of the same molecule?
**A.** 16 µM

**Q.** With `C=C(CNCCO)[C@@H]1CC[C@]2(COC3CCCCO3)CC[C@]3(C)[C@H](CC[C@@H]4[C@@]5(C)CCC(NCCc6ccc(O)cc6)C(C)(C)[C@@H]5CC[C@]43C)[C@@H]12` (some centres unmarked) [Compound 24be] as the molecule, how does the IC50 ([1]; cells incubated 72 h) read?
**A.** 5 µM

**Q.** And the IC50 [2]?
**A.** 0.5 µM

**Q.** What about the IC50 ([3]; cells incubated 72 h) of the same molecule?
**A.** < 2 µM

**Q.** And the IC50 ([4]; cells incubated 72 h)?
**A.** 18 µM

**Q.** What about the IC50 ([5]; cells incubated 72 h) of the same molecule?
**A.** 2 µM

**Q.** And the IC50 ([6]; cells incubated 72 h)?
**A.** < 2 µM

**Q.** `C=C(CNCCO)[C@@H]1CC[C@]2(CO)CC[C@]3(C)[C@H](CC[C@@H]4[C@@]5(C)CCC(NCCc6ccc(O)cc6)C(C)(C)[C@@H]5CC[C@]43C)[C@@H]12` (some centres unmarked) [Compound 24bf] was tested. Which IC50 ([1]; cells incubated 72 h) did it give?
**A.** 4 µM

**Q.** What about the IC50 [2] of the same molecule?
**A.** 1 µM

**Q.** And the IC50 ([3]; cells incubated 72 h)?
**A.** < 2 µM

**Q.** What about the IC50 ([4]; cells incubated 72 h) of the same molecule?
**A.** 14 µM

**Q.** What about the IC50 ([5]; cells incubated 72 h) of the same molecule?
**A.** 5 µM

**Q.** What about the IC50 ([6]; cells incubated 72 h) of the same molecule?
**A.** 2 µM

**Q.** Which IC50 ([1]; cells incubated 72 h) does the source give for `C=C(CNCCO)[C@@H]1CC[C@]2(COC3CCCCO3)CC[C@]3(C)[C@H](CC[C@@H]4[C@@]5(C)CCC(NCCO)C(C)(C)[C@@H]5CC[C@]43C)[C@@H]12` (some centres unmarked) [Compound 24bg] here?
**A.** 4 µM

**Q.** And the IC50 [2]?
**A.** 5 µM

**Q.** What about the IC50 ([3]; cells incubated 72 h) of the same molecule?
**A.** 3 µM

**Q.** And the IC50 ([4]; cells incubated 72 h)?
**A.** 18 µM

**Q.** What about the IC50 ([5]; cells incubated 72 h) of the same molecule?
**A.** 5 µM

**Q.** What about the IC50 ([6]; cells incubated 72 h) of the same molecule?
**A.** < 2 µM

**Q.** For `C=C(CNCCO)[C@@H]1CC[C@]2(CO)CC[C@]3(C)[C@H](CC[C@@H]4[C@@]5(C)CCC(NCCO)C(C)(C)[C@@H]5CC[C@]43C)[C@@H]12` (some centres unmarked) [Compound 24bh], which IC50 ([1]; cells incubated 72 h) is on record?
**A.** 6 µM

**Q.** And the IC50 [2]?
**A.** 13 µM

**Q.** What about the IC50 ([3]; cells incubated 72 h) of the same molecule?
**A.** 2 µM

**Q.** What about the IC50 ([4]; cells incubated 72 h) of the same molecule?
**A.** 16 µM

**Q.** What about the IC50 ([5]; cells incubated 72 h) of the same molecule?
**A.** 7 µM

**Q.** What about the IC50 ([6]; cells incubated 72 h) of the same molecule?
**A.** 6 µM

**Q.** With `C=C(CNCCO)[C@@H]1CC[C@]2(COC3CCCCO3)CC[C@]3(C)[C@H](CC[C@@H]4[C@@]5(C)CCC(NC6CCC(O)CC6)C(C)(C)[C@@H]5CC[C@]43C)[C@@H]12` (some centres unmarked) [Compound 24bi] as the molecule, how does the IC50 [2] read?
**A.** 5 µM

**Q.** What about the IC50 ([5]; cells incubated 72 h) of the same molecule?
**A.** 5 µM

**Q.** `C=C(CNCCc1ccc(O)cc1)[C@@H]1CC[C@]2(COC3CCCCO3)CC[C@]3(C)[C@H](CC[C@@H]4[C@@]5(C)CCC(N)C(C)(C)[C@@H]5CC[C@]43C)[C@@H]12` (some centres unmarked) [Compound 24bn] was tested. Which IC50 ([2]; Homo sapiens, Daoy) did it give?
**A.** 2 µM

**Q.** And the IC50 [5, 10]?
**A.** 5 µM

**Q.** What does the source list for `CC(CNCCO)[C@@H]1CC[C@]2(CO)CC[C@]3(C)[C@H](CC[C@@H]4[C@@]5(C)CCC(O)C(C)(C)[C@@H]5CC[C@]43C)[C@@H]12` (some centres unmarked) [Compound 36b]?
**A.** IC50 ([2]; Homo sapiens, Daoy): 54 µM; IC50 [5, 10]: 16 µM

Source: patent US20090062243A1, “Lupane-Type Triterpenoids Modified at 30-Position and Analogues Thereof” (ADVANCED LIFE SCIENCES, INC., priority 2007, published 2009)
